In PMC4264242, “Androgen Receptor Antagonists and Anti-Prostate Cancer Activities of Some Newly Synthesized Substituted Fused Pyrazolo-, Triazolo- and Thiazolo-Pyrimidine Derivatives” (International Journal of Molecular Sciences, 2014):
Entries after “also recorded” stand apart in the source; their conditions may differ.

Key:
[1] = Acute toxicity (LD50) in rats; conditions: rat, in vivo, rats injected with increasing doses
Protocol: The LD50 was determined by using rats injected with different increasing doses of the synthesized compounds. The dose that killed 50% of the animals was calculated according to Austen and Brocklehurst (Table 4).

[2] = target: T1, wild type AR in PC-3 cells (Homo sapiens, UniProt P10275); assay: Anti-prostate cancer screening, anti-androgenic bioassay (wild type AR transactivation) in PC-3 cells; type: cell-based; conditions: PC-3 cells transfected with wild type AR, 1 nM DHT, 24 h
T1 construct: expressed in transfected cells; host or cells: PC-3 cells (lack endogenous functional AR), transient transfection with SuperFect
T1 sequence (P10275 1-920): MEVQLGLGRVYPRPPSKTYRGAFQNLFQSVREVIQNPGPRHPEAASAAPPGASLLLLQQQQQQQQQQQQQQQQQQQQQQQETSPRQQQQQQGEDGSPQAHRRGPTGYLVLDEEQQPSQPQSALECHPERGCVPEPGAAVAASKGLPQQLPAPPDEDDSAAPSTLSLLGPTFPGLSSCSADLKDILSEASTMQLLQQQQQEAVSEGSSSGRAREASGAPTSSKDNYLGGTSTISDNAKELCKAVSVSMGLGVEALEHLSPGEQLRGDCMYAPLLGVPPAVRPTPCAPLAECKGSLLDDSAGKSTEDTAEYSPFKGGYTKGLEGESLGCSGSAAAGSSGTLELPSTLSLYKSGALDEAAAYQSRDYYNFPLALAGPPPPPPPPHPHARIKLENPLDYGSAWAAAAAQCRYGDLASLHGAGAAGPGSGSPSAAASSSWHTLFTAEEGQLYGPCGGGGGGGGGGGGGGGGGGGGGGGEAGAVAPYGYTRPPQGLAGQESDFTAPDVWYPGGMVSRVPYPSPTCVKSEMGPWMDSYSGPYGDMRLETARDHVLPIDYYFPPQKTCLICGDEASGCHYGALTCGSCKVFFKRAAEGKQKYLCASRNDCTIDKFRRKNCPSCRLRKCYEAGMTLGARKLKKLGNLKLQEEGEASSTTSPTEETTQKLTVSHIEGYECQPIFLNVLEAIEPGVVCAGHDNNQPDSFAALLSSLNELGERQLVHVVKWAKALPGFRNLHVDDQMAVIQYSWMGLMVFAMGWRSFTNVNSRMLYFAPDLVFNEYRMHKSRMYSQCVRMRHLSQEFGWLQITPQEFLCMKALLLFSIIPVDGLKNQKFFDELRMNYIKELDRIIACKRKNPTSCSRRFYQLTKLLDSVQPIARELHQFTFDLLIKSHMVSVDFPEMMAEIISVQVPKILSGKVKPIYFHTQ
Protocol: Human prostate cancer LNCaP and PC-3 cells were maintained in RPMI medium and Dulbecco’s minimum essential medium (DMEM), respectively. Both media were supplemented with penicillin (25 units/mL), streptomycin ([…]), and 10% fetal calf serum. For the androgen receptor transactivation assay, an androgen-dependent reporter gene transcription test was employed as the primary screening for potential anti-androgen identification. This assay was first performed in LNCaP cells, which express a clinically relevant mutant AR. […] Wild type AR transactivation assay was performed in PC-3 host cells, which lack an endogenous, functional AR. The method and conditions of cell and gene transfection have been described previously. In brief, cells were plated in 24-well tissue culture dishes for 24 (PC-3 cells) or 48 (LNCaP cells) h prior to transfection. Subsequently, LNCaP cells were transfected with a reporter gene, MMTV-luciferase, which contains a MMTV-long terminal repeat (LTR) promoter and an androgen receptor binding element, and Renilla Luciferase Control Reporter Vectors 40 (PRL-SV40), which served as an internal control for transfection efficiency. PC-3 cells were transfected with a wild type AR expression plasmid, plasmide gene-5 androgen recptor (pSG5AR), in addition to the above-mentioned MMTV-luciferase reporter gene and PRL-SV40 internal control. SuperFect (Qiagen, Chatsworth, CA, USA) was employed as the transfection reagent following the manufacturer’s recommendations. At the end of a 5-h transfection, the medium was changed to DMEM or RPMI supplemented with 10% charcoal dextran-stripped, i.e., androgen-depleted, serum. After 24 h, the cells were treated with 1 nM of DHT and/or test compounds at the designated concentrations.
After 24 h the cells were harvested for luciferase activity assay using the Dual Luciferase Assay System (Promega, Madison, WI, USA.). The derived data was expressed as relative luciferase activity normalized to the internal luciferase control.

[3] = other: injected (kind of injection not stated)

**Q.** For `Nc1ncnc2c1cnn2-c1nc2c(ccc3ccccc32)s1` [Compound 3], which LD50 [1, 3] is on record?
**A.** 175 mg/kg

**Q.** And the IC50 [2]?
**A.** 177 nM

**Q.** Which results are given for `N#Cc1cnn(-c2nc3c(ccc4ccccc43)s2)c1/N=C\NN` [Compound 9, 2-[3-Imidoformic hydrazido-4-cyanopyrazol-2-yl]naphthalino[1,2-d]thiazole]?
**A.** LD50 ([1]; other: injected): 125 mg/kg; IC50 [2]: 269 nM

**Q.** With `NNc1nc2c(ccc3ccccc32)s1` [Compound 1, 1-(naphtho[1,2-d]thiazol-2-yl)hydrazine] as the compound, how does the LD50 ([1]; other: injected) read?
**A.** 1160 mg/kg

**Q.** What about the “IC50 PC-3, anti-prostate cancer activity” value [2] of the same compound?
**A.** devoid from any activities; also recorded: Inactive

**Q.** With `Cc1nc2c3cnn(-c4nc5c(ccc6ccccc65)s4)c3ncn2n1` [Compound 10, 2-[6-Methyl[1,2,4]triazolo[2,3-c]pyrimidino[6,5-c]pyrazol-2-yl]naphthalino[1,2-d]thiazole] as the compound, how does the LD50 ([1]; other: injected) read?
**A.** 316 mg/kg

**Q.** And the IC50 [2]?
**A.** 109 nM

**Q.** With `CCOC1SCC2NC(=O)c3cnn(-c4nc5c(ccc6ccccc65)s4)c3N21` (stereo not drawn) [Compound 13, 2-[3-Ethoxy-5-dihydro-6H-7-oxo-[1,3]thiazolo[3,4-b]pyrimidino[4,5-c]pyrazol-2-yl]naphthalino[1,2-d]thiazole] as the compound, how does the LD50 ([1]; other: injected) read?
**A.** 443 mg/kg

**Q.** What about the IC50 [2] of the same compound?
**A.** 146 nM

**Q.** Which LD50 ([1]; other: injected) does the source give for `CCOC1SCC(=O)N1c1c(C#N)cnn1-c1nc2c(ccc3ccccc32)s1` (stereo not drawn) [Compound 12, 2-[3-(2-Ethoxy-4-oxo-5-dihydro-1,3-thiazol-3-yl)-4-cyanopyrazol-2-yl]-naphthalino[1,2-d]thiazole] here?
**A.** 234 mg/kg

**Q.** What about the IC50 [2] of the same compound?
**A.** 289 nM

**Q.** For `N=c1c2cnn(-c3nc4c(ccc5ccccc54)s3)c2ncn1NC(=O)c1ccccc1` [Compound 11], which LD50 [1, 3] is on record?
**A.** 325 mg/kg

**Q.** What about the IC50 [2] of the same compound?
**A.** 180 nM

**Q.** Which LD50 ([1]; other: injected) does the source give for `N=c1sc(=S)[nH]c2c1cnn2-c1nc2c(ccc3ccccc32)s1` [Compound 6, 2-[6-Imino-3H-4-thiothiazino[4,5-c]pyrazol-2-yl]naphthalino[1,2-d]thiazole] here?
**A.** 258 mg/kg

**Q.** What about the IC50 [2] of the same compound?
**A.** 201 nM

**Q.** With `N#Cc1cnn(-c2nc3c(ccc4ccccc43)s2)c1N` [Compound 2, 2-[3-Amino-4-cyanopyrazol-2-yl]naphthalino[1,2-d]thiazole] as the compound, how does the LD50 ([1]; other: injected) read?
**A.** 163 mg/kg

**Q.** What about the IC50 [2] of the same compound?
**A.** 157 nM

**Q.** For `Nc1nc(=S)[nH]c2c1cnn2-c1nc2c(ccc3ccccc32)s1` [Compound 5, 2-[6-Amino-3H-4-thiopyrimidino[4,5-c]pyrazol-2-yl]naphthalino[1,2-d]thiazole], which LD50 ([1]; other: injected) is on record?
**A.** 267 mg/kg

**Q.** What about the IC50 [2] of the same compound?
**A.** 190 nM

**Q.** Which results are given for `CCO/C=N\c1c(C#N)cnn1-c1nc2c(ccc3ccccc32)s1` [Compound 8, 2-[3-Ethylimidoformat-4-cyanopyrazol-2-yl]naphthalino[1,2-d]thiazole]?
**A.** LD50 ([1]; other: injected): 236 mg/kg; IC50 [2]: 279 nM

**Q.** With `Nc1n[nH]c2c1cnn2-c1nc2c(ccc3ccccc32)s1` [Compound 4] as the compound, how does the LD50 [1, 3] read?
**A.** 266 mg/kg

**Q.** And the IC50 [2]?
**A.** 179 nM
